Test results published in patent US12109184B2, “Personalized methods of treating cancer” (CANCER RESEARCH TECHNOLOGY LIMITED, priority 2020, dated 2024).

Tested on: SW480 and MDA-MB-231 cells
Experiment: Cell counting, rescue by cysteine precursors during cysteine starvation
Type: cell-based
Conditions: supplement at 0.8 mM
Experimental: HCT116, SW480, MDA-MB-468, MDA-MB-231, AsPC-1, BxPC-3, CFPAC-1, MIAPaCa-2, PANC-1, Panc10.05, SW1990, U-251, LN-18, LN-229, T98G, U-343, A-172 cells were used. Cell lines were authenticated using Short Tandem Repeat (STR) profiling and tested for mycoplasma. Colorectal and breast cancer cell lines were grown in Dulbecco's Modified Eagle Medium (DMEM), pancreatic ductal adenocarcinoma (PDAC) cell lines were grown in Roswell Park Memorial institute (RPMI) 1640. All cell lines were supplemented with penicillin-streptomycin, amphotericin, 2 mM L-glutamine, and 10% fetal bovine serum (FBS). Cells were kept at 37° C. in 5% CO2 in a humidified cell culture incubator. A formulated medium lacking cysteine, cystine, methionine, and serine was used as a base for creating experimental media. The base medium formulation contained 0.2 mM L-histidine, 0.4 mM L-isoleucine, 0.4 mM L-leucine, 0.4 mM L-lysine, 0.2 mM L-phenylalanine, 0.4 mM L-threonine, 0.08 mM L-tryptophan, 0.4 mM L-valine, 0.2 mM L-arginine, 2 mM L-glutamine, 0.2 mM L-tyrosine, 0.4 mM L-alanine, 0.3 mM L-proline, 0.15 mM L-glutamic acid, 0.1 mM L-aspartic acid, 0.2 mM L-asparagine, and 0.4 mM glycine. The base medium was supplemented with 10% dialyzed FBS, penicillin-streptomycin, and amphotericin. To ensure an adequate supply of vitamin B6 (a crucial co-factor for de novo cysteine synthesis), base medium was supplemented with additional 20 μM vitamin B6. The control experimental medium was the base medium supplemented with 0.4 mM L-cysteine, 0.2 mM L-methionine, and 0.4 mM L-serine. The cysteine starvation (−Cys) experimental medium was base medium supplemented with 0.2 mM L-methionine and 0.4 mM L-serine.
Cells were seeded at 6×10^4 cells per well into 24-well plates (triplicate wells per condition) in the relevant complete medium and adhered for a full 24-hour period. A ‘time-0’ plate was included to record the starting cell number to calculate relative cell numbers. Cells were washed once with phosphate-buffered saline (PBS) before receiving experimental medium containing or lacking the specified amino acids, metabolites, or drugs. At the stated time-points the medium was removed, cells were fixed in a 4% formalin-PBS solution. Cells were then washed and stored in PBS before staining with 4′,6-diamidino-2-phenylindole (DAPI)-Triton™ X100-PBS solution for 1 hour, followed by storage in PBS at 4° C. until further analysis. DAPI-stained cell nuclei were detected via microscopy.
Homocysteine, cystathionine, glutathione, putrescine, spermine, spermidine, GPX4 inhibitor ML210, SMOX inhibitor MDL 72527, PAOX inhibitor diminazene aceturate, ferrostatin-1 and erastin were used. AMD1 inhibitor sardomozide/SAM486A, GPX4 inhibitor RSL3, and CSE inhibitor beta-cyano-L-alanine were used. […]

CSCC[C@H](N)C(=O)O [methionine]
restoration of proliferation during cysteine starvation: no rescue
